Experimental data reported in patent US20090299044A1 (priority 2006, published 2009).
Bridge positions count the residues as written; N and C are the ends. Peptide text beside a SMILES is read from it.

Columns and labels:
human Kv1.3 (CHO) = biological target: T1, human Kv1.3 (CHO) (Homo sapiens, UniProt P22001); test: cell-based
T1 construct: expressed in transfected cells; host or cells: CHO

human Kv1.1 (HEK293) = biological target: T2, human Kv1.1 (HEK293) (Homo sapiens, UniProt Q09470); test: cell-based
T2 construct: expressed in transfected cells; host or cells: HEK293
T2 sequence (Q09470 whole entry): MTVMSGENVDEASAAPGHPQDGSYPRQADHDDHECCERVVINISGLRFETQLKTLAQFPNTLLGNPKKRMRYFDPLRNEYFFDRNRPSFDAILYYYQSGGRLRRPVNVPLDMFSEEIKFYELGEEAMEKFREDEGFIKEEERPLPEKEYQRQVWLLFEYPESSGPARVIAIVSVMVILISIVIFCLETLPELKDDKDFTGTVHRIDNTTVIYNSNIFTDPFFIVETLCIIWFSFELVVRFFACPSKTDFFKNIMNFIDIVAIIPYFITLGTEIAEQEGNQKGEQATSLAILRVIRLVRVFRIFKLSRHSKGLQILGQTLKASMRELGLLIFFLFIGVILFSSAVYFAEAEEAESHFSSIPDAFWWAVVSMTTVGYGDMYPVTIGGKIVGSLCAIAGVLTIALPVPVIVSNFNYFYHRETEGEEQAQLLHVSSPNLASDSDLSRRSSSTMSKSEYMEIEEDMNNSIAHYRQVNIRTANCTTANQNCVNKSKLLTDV

T1 sequence (P22001 whole entry): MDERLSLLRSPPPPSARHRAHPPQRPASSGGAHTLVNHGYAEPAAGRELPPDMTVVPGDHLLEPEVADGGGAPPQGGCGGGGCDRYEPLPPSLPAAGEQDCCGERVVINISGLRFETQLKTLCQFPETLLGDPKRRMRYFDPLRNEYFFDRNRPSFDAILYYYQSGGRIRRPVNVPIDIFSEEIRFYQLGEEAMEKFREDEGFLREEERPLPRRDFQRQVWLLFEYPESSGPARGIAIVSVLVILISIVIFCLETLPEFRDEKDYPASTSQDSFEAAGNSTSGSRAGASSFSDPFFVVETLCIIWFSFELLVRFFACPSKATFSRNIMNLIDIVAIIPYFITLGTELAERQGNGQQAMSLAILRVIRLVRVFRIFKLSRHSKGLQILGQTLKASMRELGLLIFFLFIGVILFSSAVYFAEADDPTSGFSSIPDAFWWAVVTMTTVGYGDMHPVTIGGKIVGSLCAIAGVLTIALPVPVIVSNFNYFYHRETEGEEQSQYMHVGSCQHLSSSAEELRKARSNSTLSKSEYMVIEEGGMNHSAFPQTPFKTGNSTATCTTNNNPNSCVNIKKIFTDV

CC[C@H](C)[C@@H]1NC(=O)[C@H](CCCCN)NC(=O)[C@@H](NC(=O)[C@H](CCCCN)NC(=O)[C@@H](NC(=O)[C@H](CC(N)=O)NC(=O)[C@@H](NC(=O)[C@@H](NC(=O)[C@@H](NC(=O)CN)C(C)C)[C@@H](C)CC)[C@@H](C)CC)C(C)C)CSSC[C@@H]2NC(=O)[C@H](CCCCN)NC(=O)[C@H](CCC(=O)O)NC(=O)[C@H](Cc3ccccc3)NC(=O)[C@H](CCCNC(=N)N)NC(=O)[C@H](CCSC)NC(=O)CNC(=O)[C@H](C)NC(=O)[C@H](CCCCN)NC(=O)[C@H](CCCCN)NC(=O)[C@@H]3CSSC[C@@H](C(=O)N[C@H](C(=O)N4CCC[C@H]4C(=O)N[C@@H](CCCCN)C(=O)O)[C@@H](C)O)NC(=O)[C@H](Cc4c[nH]cn4)NC(=O)[C@H](CSSC[C@H](NC(=O)[C@H](CCC(N)=O)NC(=O)[C@H](CCCNC(=N)N)NC(=O)[C@H](CO)NC1=O)C(=O)N[C@@H](CC(C)C)C(=O)N[C@@H](CCC(=O)O)C(=O)N1CCC[C@H]1C(=O)N3)NC(=O)[C@H](CCCCN)NC(=O)CNC(=O)[C@H](CC(N)=O)NC(=O)[C@H](CCSC)NC2=O [G26E] (H-GVIINVKCKISRQCLEPCKKAGMRFEKCMNGKCHCTPK-OH; disulfide 8-28, 14-33, 18-35)
IC50 (human Kv1.3 (CHO)): > 3.33 nM
IC50 (human Kv1.1 (HEK293)): > 3.33 nM

CC[C@H](C)[C@@H]1NC(=O)[C@H](CCCCN)NC(=O)[C@@H](NC(=O)[C@H](CCCCN)NC(=O)[C@@H](NC(=O)[C@H](CC(N)=O)NC(=O)[C@@H](NC(=O)[C@@H](NC(=O)[C@@H](NC(=O)CN)C(C)C)[C@@H](C)CC)[C@@H](C)CC)C(C)C)CSSC[C@@H]2NC(=O)[C@H](CCCCN)NC(=O)[C@H](CCCNC(=N)N)NC(=O)[C@H](Cc3ccccc3)NC(=O)[C@H](CCCNC(=N)N)NC(=O)[C@H](CCSC)NC(=O)CNC(=O)[C@H](C)NC(=O)[C@H](CCCCN)NC(=O)[C@H](CCCCN)NC(=O)[C@@H]3CSSC[C@@H](C(=O)N[C@H](C(=O)N4CCC[C@H]4C(=O)N[C@@H](CCCCN)C(=O)O)[C@@H](C)O)NC(=O)[C@H](Cc4c[nH]cn4)NC(=O)[C@H](CSSC[C@H](NC(=O)[C@H](CCC(N)=O)NC(=O)[C@H](CCCNC(=N)N)NC(=O)[C@H](CO)NC1=O)C(=O)N[C@@H](CC(C)C)C(=O)N[C@@H](CCC(=O)O)C(=O)N1CCC[C@H]1C(=O)N3)NC(=O)[C@H](CCCCN)NC(=O)CNC(=O)[C@H](CC(N)=O)NC(=O)[C@H](CCSC)NC2=O [G26R] (H-GVIINVKCKISRQCLEPCKKAGMRFRKCMNGKCHCTPK-OH; disulfide 8-28, 14-33, 18-35)
IC50 (human Kv1.3 (CHO)): > 3.33 nM
IC50 (human Kv1.1 (HEK293)): > 3.33 nM

CC[C@H](C)[C@@H]1NC(=O)[C@H](CCCCN)NC(=O)[C@@H](NC(=O)[C@H](CCCCN)NC(=O)[C@@H](NC(=O)[C@H](CC(N)=O)NC(=O)[C@@H](NC(=O)[C@@H](NC(=O)[C@@H](NC(=O)CN)C(C)C)[C@@H](C)CC)[C@@H](C)CC)C(C)C)CSSC[C@@H]2NC(=O)[C@H](CCCCN)NC(=O)CNC(=O)[C@H](Cc3ccccc3)NC(=O)[C@H](CCCNC(=N)N)NC(=O)[C@H](CCSC)NC(=O)CNC(=O)[C@H](C)NC(=O)[C@H](CCCCN)NC(=O)[C@H](CCCCN)NC(=O)[C@@H]3CSSC[C@@H](C(=O)N[C@H](C(=O)N4CCC[C@H]4C(=O)N[C@@H](CCCCN)C(=O)O)[C@@H](C)O)NC(=O)[C@H](Cc4c[nH]cn4)NC(=O)[C@H](CSSC[C@H](NC(=O)[C@H](CCC(N)=O)NC(=O)[C@H](CCCNC(=N)N)NC(=O)[C@H](CO)NC1=O)C(=O)N[C@@H](CC(C)C)C(=O)N[C@@H](CCC(=O)O)C(=O)N1CCC[C@H]1C(=O)N3)NC(=O)[C@H](CCCCN)NC(=O)[C@H](C)NC(=O)[C@H](CC(N)=O)NC(=O)[C@H](CCSC)NC2=O [G31A] (H-GVIINVKCKISRQCLEPCKKAGMRFGKCMNAKCHCTPK-OH; disulfide 8-28, 14-33, 18-35)
IC50 (human Kv1.3 (CHO)): 0.0702 nM
IC50 (human Kv1.1 (HEK293)): 0.0618 nM

CC[C@H](C)[C@@H]1NC(=O)[C@H](CCCCN)NC(=O)[C@@H](NC(=O)[C@H](CCCCN)NC(=O)[C@@H](NC(=O)[C@H](CC(N)=O)NC(=O)[C@@H](NC(=O)[C@@H](NC(=O)[C@@H](NC(=O)CN)C(C)C)[C@@H](C)CC)[C@@H](C)CC)C(C)C)CSSC[C@@H]2NC(=O)[C@H](CCCCN)NC(=O)CNC(=O)[C@H](Cc3ccccc3)NC(=O)[C@H](CCCNC(=N)N)NC(=O)[C@H](CCSC)NC(=O)CNC(=O)[C@H](C)NC(=O)[C@H](CCCCN)NC(=O)[C@H](CCCCN)NC(=O)[C@@H]3CSSC[C@@H](C(=O)N[C@H](C(=O)N4CCC[C@H]4C(=O)N[C@@H](CCCCN)C(=O)O)[C@@H](C)O)NC(=O)[C@H](Cc4c[nH]cn4)NC(=O)[C@H](CSSC[C@H](NC(=O)[C@H](CCC(N)=O)NC(=O)[C@H](CCCNC(=N)N)NC(=O)[C@H](CO)NC1=O)C(=O)N[C@@H](CC(C)C)C(=O)N[C@@H](CCC(=O)O)C(=O)N1CCC[C@H]1C(=O)N3)NC(=O)[C@H](CCCCN)NC(=O)[C@H](CCC(=O)O)NC(=O)[C@H](CC(N)=O)NC(=O)[C@H](CCSC)NC2=O [G31E] (H-GVIINVKCKISRQCLEPCKKAGMRFGKCMNEKCHCTPK-OH; disulfide 8-28, 14-33, 18-35)
IC50 (human Kv1.3 (CHO)): 0.012 nM
IC50 (human Kv1.1 (HEK293)): 0.00237 nM

CC[C@H](C)[C@@H]1NC(=O)[C@H](CCCCN)NC(=O)[C@@H](NC(=O)[C@H](CCCCN)NC(=O)[C@@H](NC(=O)[C@H](CC(N)=O)NC(=O)[C@@H](NC(=O)[C@@H](NC(=O)[C@@H](NC(=O)CN)C(C)C)[C@@H](C)CC)[C@@H](C)CC)C(C)C)CSSC[C@@H]2NC(=O)[C@H](CCCCN)NC(=O)CNC(=O)[C@H](Cc3ccccc3)NC(=O)[C@H](CCCNC(=N)N)NC(=O)[C@H](CCSC)NC(=O)CNC(=O)[C@H](C)NC(=O)[C@H](CCCCN)NC(=O)[C@H](CCCCN)NC(=O)[C@@H]3CSSC[C@@H](C(=O)N[C@H](C(=O)N4CCC[C@H]4C(=O)N[C@@H](CCCCN)C(=O)O)[C@@H](C)O)NC(=O)[C@H](Cc4c[nH]cn4)NC(=O)[C@H](CSSC[C@H](NC(=O)[C@H](CCC(N)=O)NC(=O)[C@H](CCCNC(=N)N)NC(=O)[C@H](CO)NC1=O)C(=O)N[C@@H](CC(C)C)C(=O)N[C@@H](CCC(=O)O)C(=O)N1CCC[C@H]1C(=O)N3)NC(=O)[C@H](CCCCN)NC(=O)[C@H](CCCNC(=N)N)NC(=O)[C@H](CC(N)=O)NC(=O)[C@H](CCSC)NC2=O [G31R]
IC50 (human Kv1.3 (CHO)): 0.0222 nM
IC50 (human Kv1.1 (HEK293)): 0.00159 nM

CC[C@H](C)[C@@H]1NC(=O)[C@H](CCCCN)NC(=O)[C@@H](NC(=O)[C@H](CCCCN)NC(=O)[C@@H](NC(=O)[C@H](CC(N)=O)NC(=O)[C@@H](NC(=O)[C@@H](NC(=O)[C@@H](NC(=O)CN)C(C)C)[C@@H](C)CC)[C@@H](C)CC)C(C)C)CSSC[C@@H]2NC(=O)[C@H](CCCCN)NC(=O)CNC(=O)[C@H](Cc3ccccc3)NC(=O)[C@H](CCCNC(=N)N)NC(=O)[C@H](CCSC)NC(=O)CNC(=O)[C@H](C)NC(=O)[C@H](CCCCN)NC(=O)[C@H](CCCCN)NC(=O)[C@@H]3CSSC[C@@H](C(=O)N[C@H](C(=O)N4CCC[C@H]4C(=O)N[C@@H](CCCCN)C(=O)O)[C@@H](C)O)NC(=O)[C@H](CCCNC(=N)N)NC(=O)[C@H](CSSC[C@H](NC(=O)[C@H](CCC(N)=O)NC(=O)[C@H](CCCNC(=N)N)NC(=O)[C@H](CO)NC1=O)C(=O)N[C@@H](CC(C)C)C(=O)N[C@@H](CCC(=O)O)C(=O)N1CCC[C@H]1C(=O)N3)NC(=O)[C@H](CCCCN)NC(=O)CNC(=O)[C@H](CC(N)=O)NC(=O)[C@H](CCSC)NC2=O [H34R] (H-GVIINVKCKISRQCLEPCKKAGMRFGKCMNGKCRCTPK-OH; disulfide 8-28, 14-33, 18-35)
IC50 (human Kv1.3 (CHO)): 0.0136 nM
IC50 (human Kv1.1 (HEK293)): 0.00449 nM

CC[C@H](C)[C@H](NC(=O)[C@H](C)NC(=O)[C@@H](NC(=O)CN)C(C)C)C(=O)N[C@@H](CC(N)=O)C(=O)N[C@H](C(=O)N[C@@H](CCCCN)C(=O)N[C@H]1CSSC[C@@H]2NC(=O)[C@H](CCCCN)NC(=O)CNC(=O)[C@H](Cc3ccccc3)NC(=O)[C@H](CCCNC(=N)N)NC(=O)[C@H](CCSC)NC(=O)CNC(=O)[C@H](C)NC(=O)[C@H](CCCCN)NC(=O)[C@H](CCCCN)NC(=O)[C@@H]3CSSC[C@@H](C(=O)N[C@H](C(=O)N4CCC[C@H]4C(=O)N[C@@H](CCCCN)C(=O)O)[C@@H](C)O)NC(=O)[C@H](Cc4c[nH]cn4)NC(=O)[C@H](CSSC[C@H](NC(=O)[C@H](CCC(N)=O)NC(=O)[C@H](CCCNC(=N)N)NC(=O)[C@H](CO)NC(=O)[C@H]([C@@H](C)CC)NC(=O)[C@H](CCCCN)NC1=O)C(=O)N[C@@H](CC(C)C)C(=O)N[C@@H](CCC(=O)O)C(=O)N1CCC[C@H]1C(=O)N3)NC(=O)[C@H](CCCCN)NC(=O)CNC(=O)[C@H](CC(N)=O)NC(=O)[C@H](CCSC)NC2=O)C(C)C [I3A] (H-GVAINVKCKISRQCLEPCKKAGMRFGKCMNGKCHCTPK-OH; disulfide 8-28, 14-33, 18-35)
IC50 (human Kv1.3 (CHO)): 0.0966 nM
IC50 (human Kv1.1 (HEK293)): 0.0106 nM

CC[C@H](C)[C@@H]1NC(=O)[C@H](CCCCN)NC(=O)[C@@H](NC(=O)[C@H](CCCCN)NC(=O)[C@@H](NC(=O)[C@H](CC(N)=O)NC(=O)[C@@H](NC(=O)[C@H](CCC(=O)O)NC(=O)[C@@H](NC(=O)CN)C(C)C)[C@@H](C)CC)C(C)C)CSSC[C@@H]2NC(=O)[C@H](CCCCN)NC(=O)CNC(=O)[C@H](Cc3ccccc3)NC(=O)[C@H](CCCNC(=N)N)NC(=O)[C@H](CCSC)NC(=O)CNC(=O)[C@H](C)NC(=O)[C@H](CCCCN)NC(=O)[C@H](CCCCN)NC(=O)[C@@H]3CSSC[C@@H](C(=O)N[C@H](C(=O)N4CCC[C@H]4C(=O)N[C@@H](CCCCN)C(=O)O)[C@@H](C)O)NC(=O)[C@H](Cc4c[nH]cn4)NC(=O)[C@H](CSSC[C@H](NC(=O)[C@H](CCC(N)=O)NC(=O)[C@H](CCCNC(=N)N)NC(=O)[C@H](CO)NC1=O)C(=O)N[C@@H](CC(C)C)C(=O)N[C@@H](CCC(=O)O)C(=O)N1CCC[C@H]1C(=O)N3)NC(=O)[C@H](CCCCN)NC(=O)CNC(=O)[C@H](CC(N)=O)NC(=O)[C@H](CCSC)NC2=O [I3E] (H-GVEINVKCKISRQCLEPCKKAGMRFGKCMNGKCHCTPK-OH; disulfide 8-28, 14-33, 18-35)
IC50 (human Kv1.3 (CHO)): 0.022 nM
IC50 (human Kv1.1 (HEK293)): 0.043 nM
